Assay results published in PubChem BioAssay (NCI).
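The compound was tested at five concentrations on cells cultured in 96-well plates, with a 48-hour exposure period. TGI: concentration producing complete growth inhibition.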

How the values were obtained:
Assay in all cases: NCI-60 cell line screen, 48 h
786-0 renal = system: 786-0 renal
A498 renal = system: A498 renal
A549 NSCLC = system: A549 NSCLC
ACHN renal = system: ACHN renal
BT-549 breast = system: BT-549 breast
CAKI-1 renal = system: CAKI-1 renal
COLO 205 colon = system: COLO 205 colon
DU-145 prostate = system: DU-145 prostate
EKVX NSCLC = system: EKVX NSCLC
HCC-2998 colon = system: HCC-2998 colon
HCT-116 colon = system: HCT-116 colon
HCT-15 colon = system: HCT-15 colon
HOP-62 NSCLC = system: HOP-62 NSCLC
HS 578T breast = system: HS 578T breast
HT29 colon = system: HT29 colon
IGROV1 ovarian = system: IGROV1 ovarian
K-562 leukemia = system: K-562 leukemia
KM12 colon = system: KM12 colon
LOX IMVI melanoma = system: LOX IMVI melanoma
M14 melanoma = system: M14 melanoma
MALME-3M melanoma = system: MALME-3M melanoma
MCF7 breast = system: MCF7 breast
MDA-MB-231 breast = system: MDA-MB-231 breast
MDA-MB-435 = system: MDA-MB-435
MDA-N = system: MDA-N
NCI-H226 lung = system: NCI-H226 lung
NCI-H460 lung = system: NCI-H460 lung
NCI-H522 lung = system: NCI-H522 lung
NCI/ADR-RES ovarian = system: NCI/ADR-RES ovarian
OVCAR-3 ovarian = system: OVCAR-3 ovarian
OVCAR-4 ovarian = system: OVCAR-4 ovarian
OVCAR-5 ovarian = system: OVCAR-5 ovarian
OVCAR-8 ovarian = system: OVCAR-8 ovarian
PC-3 prostate = system: PC-3 prostate
RPMI-8226 leukemia = system: RPMI-8226 leukemia
SF-268 CNS = system: SF-268 CNS
SF-295 CNS = system: SF-295 CNS
SF-539 CNS = system: SF-539 CNS
SK-MEL-2 melanoma = system: SK-MEL-2 melanoma
SK-MEL-28 melanoma = system: SK-MEL-28 melanoma
SK-MEL-5 melanoma = system: SK-MEL-5 melanoma
SK-OV-3 ovarian = system: SK-OV-3 ovarian
SN12C renal = system: SN12C renal
SNB-19 CNS = system: SNB-19 CNS
SNB-75 CNS = system: SNB-75 CNS
SR leukemia = system: SR leukemia
SW-620 colon = system: SW-620 colon
T-47D breast = system: T-47D breast
TK-10 renal = system: TK-10 renal
U251 CNS = system: U251 CNS
UACC-257 melanoma = system: UACC-257 melanoma
UACC-62 melanoma = system: UACC-62 melanoma
UO-31 renal = system: UO-31 renal
CCRF-CEM leukemia = system: CCRF-CEM leukemia
HL-60(TB) leukemia = system: HL-60(TB) leukemia
HOP-92 NSCLC = system: HOP-92 NSCLC
MOLT-4 leukemia = system: MOLT-4 leukemia
NCI-H23 lung = system: NCI-H23 lung
RXF 393 renal = system: RXF 393 renal
KM20L2 colon = system: KM20L2 colon

COC(=O)c1ccc2[nH]c3c(c2c1)CC(=O)Nc1ccccc1-3
TGI (786-0 renal): > 100 µM
TGI (A498 renal): > 100 µM
TGI (A549 NSCLC): > 100 µM
TGI (ACHN renal): > 100 µM
TGI (BT-549 breast): > 100 µM
TGI (CAKI-1 renal): > 100 µM
TGI (COLO 205 colon): > 100 µM
TGI (DU-145 prostate): > 100 µM
TGI (EKVX NSCLC): > 100 µM
TGI (HCC-2998 colon): > 100 µM
TGI (HCT-116 colon): > 100 µM
TGI (HCT-15 colon): > 100 µM
TGI (HOP-62 NSCLC): > 100 µM
TGI (HS 578T breast): > 100 µM
TGI (HT29 colon): > 100 µM
TGI (IGROV1 ovarian): > 100 µM
TGI (K-562 leukemia): 97.7 µM
TGI (KM12 colon): > 100 µM
TGI (LOX IMVI melanoma): > 100 µM
TGI (M14 melanoma): > 100 µM
TGI (MALME-3M melanoma): > 100 µM
TGI (MCF7 breast): > 100 µM
TGI (MDA-MB-231 breast): > 100 µM
TGI (MDA-MB-435): > 100 µM
TGI (MDA-N): > 100 µM
TGI (NCI-H226 lung): > 100 µM
TGI (NCI-H460 lung): > 100 µM
TGI (NCI-H522 lung): > 100 µM
TGI (NCI/ADR-RES ovarian): > 100 µM
TGI (OVCAR-3 ovarian): > 100 µM
TGI (OVCAR-4 ovarian): 40.2 µM
TGI (OVCAR-5 ovarian): > 100 µM
TGI (OVCAR-8 ovarian): > 100 µM
TGI (PC-3 prostate): > 100 µM
TGI (RPMI-8226 leukemia): > 100 µM
TGI (SF-268 CNS): > 100 µM
TGI (SF-295 CNS): > 100 µM
TGI (SF-539 CNS): 5.52 µM
TGI (SK-MEL-2 melanoma): > 100 µM
TGI (SK-MEL-28 melanoma): > 100 µM
TGI (SK-MEL-5 melanoma): > 100 µM
TGI (SK-OV-3 ovarian): > 100 µM
TGI (SN12C renal): > 100 µM
TGI (SNB-19 CNS): > 100 µM
TGI (SNB-75 CNS): 6.11 µM
TGI (SR leukemia): 25 µM
TGI (SW-620 colon): > 100 µM
TGI (T-47D breast): > 100 µM
TGI (TK-10 renal): > 100 µM
TGI (U251 CNS): 94.6 µM
TGI (UACC-257 melanoma): > 100 µM
TGI (UACC-62 melanoma): > 100 µM
TGI (UO-31 renal): 0.211 µM

O=C(C(=O)n1ccc2ccccc21)c1c[nH]c2ccccc12
TGI (786-0 renal): > 10 µM
TGI (A549 NSCLC): > 10 µM
TGI (ACHN renal): > 10 µM
TGI (BT-549 breast): > 10 µM
TGI (CAKI-1 renal): > 10 µM
TGI (CCRF-CEM leukemia): > 10 µM
TGI (COLO 205 colon): > 10 µM
TGI (DU-145 prostate): > 10 µM
TGI (EKVX NSCLC): > 10 µM
TGI (HCC-2998 colon): > 10 µM
TGI (HCT-116 colon): > 10 µM
TGI (HCT-15 colon): > 10 µM
TGI (HL-60(TB) leukemia): > 10 µM
TGI (HOP-62 NSCLC): > 10 µM
TGI (HOP-92 NSCLC): > 10 µM
TGI (HS 578T breast): > 10 µM
TGI (HT29 colon): > 10 µM
TGI (IGROV1 ovarian): > 10 µM
TGI (K-562 leukemia): > 10 µM
TGI (KM12 colon): > 10 µM
TGI (LOX IMVI melanoma): > 10 µM
TGI (M14 melanoma): > 10 µM
TGI (MALME-3M melanoma): > 10 µM
TGI (MCF7 breast): > 10 µM
TGI (MDA-MB-231 breast): > 10 µM
TGI (MDA-MB-435): > 10 µM
TGI (MDA-N): > 10 µM
TGI (MOLT-4 leukemia): > 10 µM
TGI (NCI-H226 lung): > 10 µM
TGI (NCI-H23 lung): > 10 µM
TGI (NCI-H460 lung): > 10 µM
TGI (NCI-H522 lung): > 10 µM
TGI (NCI/ADR-RES ovarian): > 10 µM
TGI (OVCAR-3 ovarian): > 10 µM
TGI (OVCAR-4 ovarian): > 10 µM
TGI (OVCAR-5 ovarian): > 10 µM
TGI (OVCAR-8 ovarian): > 10 µM
TGI (PC-3 prostate): > 10 µM
TGI (RPMI-8226 leukemia): > 10 µM
TGI (RXF 393 renal): > 10 µM
TGI (SF-268 CNS): > 10 µM
TGI (SF-295 CNS): > 10 µM
TGI (SF-539 CNS): > 10 µM
TGI (SK-MEL-2 melanoma): > 10 µM
TGI (SK-MEL-28 melanoma): > 10 µM
TGI (SK-MEL-5 melanoma): > 10 µM
TGI (SK-OV-3 ovarian): > 10 µM
TGI (SN12C renal): > 10 µM
TGI (SNB-19 CNS): > 10 µM
TGI (SNB-75 CNS): > 10 µM
TGI (SR leukemia): > 10 µM
TGI (SW-620 colon): > 10 µM
TGI (T-47D breast): > 10 µM
TGI (TK-10 renal): > 10 µM
TGI (U251 CNS): > 10 µM
TGI (UACC-257 melanoma): > 10 µM
TGI (UACC-62 melanoma): > 10 µM
TGI (UO-31 renal): > 10 µM

CN1CCN(c2nc3c(c(=O)n(C)c(=O)n3C)n2C)CC1
TGI (786-0 renal): > 100 µM
TGI (A498 renal): > 100 µM
TGI (A549 NSCLC): > 100 µM
TGI (ACHN renal): > 100 µM
TGI (BT-549 breast): > 100 µM
TGI (CAKI-1 renal): > 100 µM
TGI (CCRF-CEM leukemia): > 100 µM
TGI (COLO 205 colon): > 100 µM
TGI (DU-145 prostate): > 100 µM
TGI (EKVX NSCLC): > 100 µM
TGI (HCC-2998 colon): > 100 µM
TGI (HCT-116 colon): > 100 µM
TGI (HCT-15 colon): > 100 µM
TGI (HL-60(TB) leukemia): > 100 µM
TGI (HOP-62 NSCLC): > 100 µM
TGI (HOP-92 NSCLC): > 100 µM
TGI (HS 578T breast): > 100 µM
TGI (HT29 colon): > 100 µM
TGI (IGROV1 ovarian): > 100 µM
TGI (K-562 leukemia): > 100 µM
TGI (KM12 colon): > 100 µM
TGI (LOX IMVI melanoma): > 100 µM
TGI (M14 melanoma): > 100 µM
TGI (MALME-3M melanoma): > 100 µM
TGI (MCF7 breast): > 100 µM
TGI (MDA-MB-231 breast): > 100 µM
TGI (MDA-MB-435): > 100 µM
TGI (MDA-N): > 100 µM
TGI (NCI-H226 lung): > 100 µM
TGI (NCI-H23 lung): > 100 µM
TGI (NCI-H460 lung): > 100 µM
TGI (NCI-H522 lung): > 100 µM
TGI (NCI/ADR-RES ovarian): > 100 µM
TGI (OVCAR-3 ovarian): > 100 µM
TGI (OVCAR-4 ovarian): > 100 µM
TGI (OVCAR-5 ovarian): > 100 µM
TGI (OVCAR-8 ovarian): > 100 µM
TGI (PC-3 prostate): > 100 µM
TGI (RPMI-8226 leukemia): > 100 µM
TGI (RXF 393 renal): > 100 µM
TGI (SF-268 CNS): > 100 µM
TGI (SF-295 CNS): > 100 µM
TGI (SK-MEL-2 melanoma): > 100 µM
TGI (SK-MEL-28 melanoma): > 100 µM
TGI (SK-MEL-5 melanoma): > 100 µM
TGI (SK-OV-3 ovarian): > 100 µM
TGI (SN12C renal): > 100 µM
TGI (SNB-19 CNS): > 100 µM
TGI (SNB-75 CNS): > 100 µM
TGI (SR leukemia): > 100 µM
TGI (SW-620 colon): > 100 µM
TGI (T-47D breast): > 100 µM
TGI (TK-10 renal): > 100 µM
TGI (U251 CNS): > 100 µM
TGI (UACC-257 melanoma): > 100 µM
TGI (UACC-62 melanoma): > 100 µM
TGI (UO-31 renal): > 100 µM

CCCCCC(=O)OC[n+]1ccc2c(C)c3[nH]c4ccccc4c3c(C)c2c1
TGI (A498 renal): 2.67 µM
TGI (ACHN renal): 11.1 µM
TGI (CAKI-1 renal): 7.75 µM
TGI (HL-60(TB) leukemia): > 100 µM
TGI (HOP-62 NSCLC): 4.14 µM
TGI (HOP-92 NSCLC): > 100 µM
TGI (IGROV1 ovarian): 38.6 µM
TGI (KM20L2 colon): 2.75 µM
TGI (MOLT-4 leukemia): 8.26 µM
TGI (OVCAR-5 ovarian): 2.75 µM
TGI (RPMI-8226 leukemia): 1.78 µM
TGI (SK-MEL-2 melanoma): 29.8 µM
TGI (SK-OV-3 ovarian): 5.13 µM
TGI (SR leukemia): 12 µM
TGI (TK-10 renal): 15.4 µM
TGI (UO-31 renal): 13 µM
